# Source: patent publication US10196363B2, “Dihydropyrimidin-2-one compounds and medical use thereof” (JAPAN TOBACCO INC., priority 2014, dated 2019)
# Like-named read-outs stand apart in the source and are kept apart here.
# Tests used:
# mouse RORγ = target: T1, mouse RORγ (Mus musculus, UniProt P51450); assay: In vitro assay of inhibitory effect against RORγ transcriptional activity (GAL4-mRORγ LBD luciferase reporter gene assay in CHO cells); assay type: cell-based; settings: for mRORγ luciferase activity, %-of-control: value in parentheses beside the > EC50 bound, vehicle-control 0.2% DMSO alone = 100%
# T1 construct: mouse RORγ, from Ile251 to Lys516; expressed in transfected cells; host or cells: CHO cells (Chinese hamster ovary), transient co-transfection with pG5-Luc
# T1 sequence (P51450 251-516): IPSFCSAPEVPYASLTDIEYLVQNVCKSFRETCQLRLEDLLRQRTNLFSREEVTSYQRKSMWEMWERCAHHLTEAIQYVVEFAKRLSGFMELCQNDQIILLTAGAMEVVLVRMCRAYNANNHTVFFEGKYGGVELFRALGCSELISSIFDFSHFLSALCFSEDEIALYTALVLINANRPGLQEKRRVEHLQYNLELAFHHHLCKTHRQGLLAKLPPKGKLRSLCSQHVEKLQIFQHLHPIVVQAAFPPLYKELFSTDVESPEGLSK
# Description: (§1) In Vitro Assay of Inhibitory Effect Against RORγ Transcriptional Activity
# (§2) Inhibitory effect of a test article on transcriptional activity of RORγ was measured by means of the following reporter gene assay.
# (§3) cDNA encoding human and mouse RORγ ligand binding domain (LBD) were obtained based on the sequences of human RORγ (Genebank registered number NM_005060.3) and mouse RORγ (Genebank registered number NM_011281.2) (LBD sequence: human RORγ, from Ser253 to Lys518; mouse RORγ, from Ile251 to Lys516).
# (§4) The LBD cDNA of human or mouse RORγ was inserted into pFA-CMV vector (Strategene), which expresses GAL4-DNA binding domain fusion protein. The resulting plasmids are hereinafter referred to as GAL4-hRORγ plasmid and GAL4-mRORγ plasmid, respectively.
# (§5) GAL4-hRORγ plasmid or GAL4-mRORγ plasmid was transiently co-transfected into Chinese hamster ovary cells (CHO cells) with pG5-Luc (Promega), a reporter plasmid expressing firefly luciferase depending on GAL4.
# (§6) TransIT (Registered trademark) CHO transfection reagent (Mirus) was used to co-transfect GAL4-hRORγ plasmid or GAL4-mRORγ plasmid into CHO cells with pG5-Luc plasmid. One day before the assay, CHO cells were suspended in HAM F-12 Nutrient medium containing 10 v/v % fetal bovine serum and seeded at 6×10^6 cells per 175 cm^2 cell culture flask. Fifty four micro litters of TransIT (Registered trademark) CHO reagent was added into a 15 ml tube containing 1.16 mL of HAM F-12 Nutrient medium without fetal bovine serum, and mixed and incubated at room temperature for 10 min. Thirty six micro litters of plasmid solution containing the GAL4-hRORγ plasmid (400 ng), pG5-Luc plasmid (9000 ng) and pcDNA3 plasmid (8600 ng) were added into the tube and mixed gently. In case of mouse assay, a plasmid solution containing the GAL4-mRORγ plasmid (250 ng), pG5-Luc plasmid (9000 ng) and pcDNA3 plasmid (8750 ng) was added, instead. The mixture was incubated at room temperature for 10 min. Nine micro litters of CHO Mojo Reagent were then added into each tube and mixed gently. The mixture was incubated at room temperature for 10 min. The resultant transfection reagent was applied to the cell culture. After incubation at 37° C., 5% CO2 for 4 hours, the plasmid-transfected CHO cells were harvested with a trypsin treatment. The collected cells were resuspended in HAM F-12 Nutrient medium supplemented with 10 v/v % fetal bovine serum and plated into a 384-well-white plate at 8,000 cells/50 μL/well. The plate was incubated at room temperature for 1 hour and then further incubated at 37° C., 5% CO2 for 3 hours. The test articles were dissolved in dimethylsulfoxide (DMSO) to obtain a concentration of 10 mM. The resulting solution was diluted with a medium just before use and added to the cells in the plate to prepare 8 different concentrations of the test article. The final concentration of DMSO was 0.2 v/v %. After the addition of the test articles, the cells were incubated at 37° C., 5% CO2 for 2 days.
# (§7) RORγ transcriptional activity was detected as the intracellular luciferase activity using SteadyLite HTS Reporter Gene Assay System (Perkin Elmer). StedyLite Reagent was diluted five-fold into a solution containing Extension reagent (10 mM Tricine, 0.2% w/v BSA, 0.02% v/v Tween-20) to obtain the luciferase substrate solution. After the measurement of the cell viability using Resazurin, the culture media in the plate were removed, and then the luciferase substrate solution was added into each well. After the incubation at room temperature for 10 minutes, luminescence of each well was measured by a microplate reader. The luciferase activity derived from the luminescence count in the vehicle-control well treated with 0.2% DMSO alone was defined as 100%, and the luciferase activity in the test article was calculated as a percentage (%-of-control) based on the value of the vehicle-control. EC50 value of test article was calculated by curve fitting with GraphPad Prism. […]
# human RORγ = target: T2, human RORγ (Homo sapiens, UniProt P51449); assay: In vitro assay of inhibitory effect against RORγ transcriptional activity (GAL4-hRORγ LBD luciferase reporter gene assay in CHO cells); assay type: cell-based; settings: for hRORγ luciferase activity, %-of-control: value in parentheses beside the > EC50 bound, vehicle-control 0.2% DMSO alone = 100%
# T2 construct: human RORγ, from Ser253 to Lys518; expressed in transfected cells; host or cells: CHO cells (Chinese hamster ovary), transient co-transfection with pG5-Luc
# T2 sequence (P51449 253-518): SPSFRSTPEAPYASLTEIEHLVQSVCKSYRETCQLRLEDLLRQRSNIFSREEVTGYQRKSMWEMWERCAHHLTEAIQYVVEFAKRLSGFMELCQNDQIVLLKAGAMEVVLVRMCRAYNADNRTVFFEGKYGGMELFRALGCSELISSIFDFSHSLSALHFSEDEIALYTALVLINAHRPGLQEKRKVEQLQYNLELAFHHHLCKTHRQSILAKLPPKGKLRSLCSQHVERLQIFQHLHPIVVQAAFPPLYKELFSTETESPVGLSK
# Description: as §1, §2, §3, §4, §5, §6, §7
# [1] = GAL4-mRORγ LBD / pG5-Luc in CHO cells, 2 days incubation
# [2] = GAL4-hRORγ LBD / pG5-Luc in CHO cells, 2 days incubation
# [3] = GAL4-mRORγ LBD luciferase reporter, CHO cells, read-out: LUC EC50 mRORγ
# [4] = GAL4-hRORγ LBD luciferase reporter, CHO cells, read-out: LUC EC50 hRORγ
Structure (SMILES),EC50 (mouse RORγ; [1]),EC50 (human RORγ; [2]),"mRORγ luciferase activity, %-of-control (mouse RORγ)","hRORγ luciferase activity, %-of-control (human RORγ)",EC50 (mouse RORγ; [3]),EC50 (human RORγ; [4])
CC(C)C1=CN(CCC(=O)O)C(=O)N[C@@]1(C)c1ccc(C2CCCCC2)c(Cl)c1 [Example 136],49 nM,94 nM,–,–,–,–
CCCC(CCC)Cc1ccc([C@]2(C)NC(=O)N(CCC(=O)O)C=C2C(C)C)cc1Cl [Example 178],21 nM,19 nM,–,–,–,–
CC(C)C1=CN(CCC(=O)O)C(=O)N[C@]1(C)c1ccc(CCC2CCCC2)c(Cl)c1 [Example 119],> 8000 nM,> 8000 nM,(76%),(74%),–,–
CC(C)(C)COc1ccc([C@]2(C)NC(=O)N(C34CC(C(=O)O)(C3)C4)C=C2C2CC(F)(F)C2)cc1Cl [Example 355],–,–,–,–,52 nM,113 nM
"CC(C)C1=CN(C23C4C5C2C2C3C4C52C(=O)O)C(=O)N[C@@]1(C)c1ccc(CCC(C)(C)C)c(Cl)c1 (single isomer, unassigned) [Example 222]",–,–,–,–,40 nM,20 nM
C[C@@]1(c2ccc(OCCC3CC3)c(Cl)c2)NC(=O)N(C23CC(C(=O)O)(C2)C3)C=C1C1CC(F)(F)C1 [Example 354],–,–,–,–,144 nM,239 nM
CC(C)(C)CCc1ccc([C@]2(C)NC(=O)N([C@H]3C[C@H](C(=O)O)C3)C=C2[C@H]2C[C@@H](CO)C2)cc1Cl [Example 205],–,–,–,–,427 nM,281 nM
"CC(C)(C)COc1ccc(C2NC(=O)N(CCCC(=O)O)C=C2C(C)(C)C)cc1Cl (single isomer, unassigned) [Example 5, 4-{5-tert-butyl-4-[3-chloro-4-(2,2-dimethylpropoxy)-phenyl]-2-oxo-3,4-dihydro-2H-pyrimidin-1-yl}-butanoic Acid]",24 nM,34 nM,–,–,–,–
CC(C)C1=CN([C@H]2CC[C@@H](C(=O)O)CC2)C(=O)NC1(C)c1ccc(CCC(C)(C)C)c(Cl)c1 (mixture of isomers) [Example 30],47 nM,60 nM,–,–,–,–
CO[C@H]1C[C@H](N2C=C([C@H]3C[C@@H](C(=O)O)C3)[C@](C)(c3ccc(CCC(C)(C)C)c(Cl)c3)NC2=O)C1 [Example 200],–,–,–,–,23 nM,14 nM
CC(C)C1=CN(CCC(=O)O)C(=O)N[C@@]1(C)c1ccc(C2CC(C)(C)C2)c(Cl)c1 [Example 298],–,–,–,–,18 nM,22 nM
CC(C)=Cc1ccc(C2(C)NC(=O)N(CCCC(=O)O)C=C2C(C)C)cc1 (racemic) [Example 188],1130 nM,2610 nM,–,–,–,–
"CC(C)(C)CCc1ccc(C2NC(=O)N(CCCC(=O)O)C=C2C(C)(C)C)cc1Cl (single isomer, unassigned) [Example 10]",17 nM,9 nM,–,–,–,–
"CC(C)(C)CCc1ccc(C2NC(=O)N([C@H]3C[C@H](C(=O)O)C3)C=C2C(C)(C)C)cc1Cl (single isomer, unassigned) [Example 102]",> 8000 nM,> 8000 nM,(76%),(76%),–,–
CC(C)(C)CCc1ccc([C@]2(C)NC(=O)N(CCCC(=O)O)C=C2C2CCOCC2)cc1Cl [Example 92],20 nM,13 nM,–,–,–,–
CC(C)C1=CN(C23CC(C(=O)O)(C2)C3)C(=O)N[C@]1(C)c1ccc(CCC(C)(C)C)c(Cl)c1 [Example 76],6360 nM,3470 nM,–,–,–,–
